Test results published in PubChem BioAssay AID248 (DTP/NCI, 2004).
“And” between values parts separate entries of the source, which are not always exact repeats. Identical values can stand only once. Inconclusive results and toxic doses are left out. Rule as the data show it: active = T/C of 150% or more; inactive = T/C below 125%.

Test system: L1210 leukemia ip in BDF1 mice, survival T/C
Experiment: NCI In Vivo Anticancer Drug Screen. Data for tumor model L1210 Leukemia (intraperitoneal) in B6D2F1 (BDF1) mice
Conditions: endpoint: mean survival time, higher = longer survival
Procedure, shortened: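 Each compound was tested against a transplantable tumor grown in mice. The endpoint was survival, with treated animals benchmarked against vehicle controls as a simple ratio.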

[1] = dose: 50.0 mg/kg/injection, schedule: Q01DX009 (ip), vehicle: saline with Tween-80
[2] = dose: 100.0 mg/kg/injection, schedule: Q01DX009 (ip), vehicle: saline with Tween-80
[3] = dose: 200.0 mg/kg/injection, schedule: Q01DX009 (ip), vehicle: saline with Tween-80
[4] = dose: 100.0 mg/kg/injection, schedule: Q04DX003 (ip), vehicle: saline with Tween-80
[5] = dose: 200.0 mg/kg/injection, schedule: Q04DX003 (ip), vehicle: saline with Tween-80
[6] = dose: 400.0 mg/kg/injection, schedule: Q01DX009 (ip), vehicle: saline with Tween-80
[7] = dose: 400.0 mg/kg/injection, schedule: Q04DX003 (ip), vehicle: saline with Tween-80
[8] = dose: 100.0 mg/kg/injection, schedule: Q01DX001 (ip), vehicle: saline with Tween-80
[9] = dose: 100.0 mg/kg/injection, schedule: Q04DX003 (ip), vehicle: saline
[10] = dose: 200.0 mg/kg/injection, schedule: Q01DX001 (ip), vehicle: saline with Tween-80
[11] = dose: 200.0 mg/kg/injection, schedule: Q04DX003 (ip), vehicle: saline
[12] = dose: 100.0 mg/kg/injection, schedule: Q01DX001 (ip), vehicle: saline
[13] = dose: 200.0 mg/kg/injection, schedule: Q01DX001 (ip), vehicle: saline
[14] = dose: 75.0 mg/kg/injection, schedule: Q01DX001 (ip), vehicle: saline
[15] = dose: 150.0 mg/kg/injection, schedule: Q01DX001 (ip), vehicle: saline
[16] = dose: 400.0 mg/kg/injection, schedule: Q01DX001 (ip), vehicle: saline

Measured: T/C

c1ccc2c(c1)nnn2-c1ccncc1
inactive: [1] 92 % of control | [2] 98 % of control | [3] 90 % of control

c1ccc(Nc2ccc3ccccc3c2)cc1
inactive: [2] 97 % of control | [4] 92 % of control | [3] 89 % of control | [5] 98 % of control | [6] 92 % of control | [7] 98 % of control

O=[N+]([O-])c1ccc2c(c1)S(=O)c1ccccc1-2 (stereo unspecified)
inactive: [4] 109 % of control | [5] 94 % of control

O=[N+]([O-])c1ccc(N/N=C/C(c2ccccc2)c2ccsc2)c([N+](=O)[O-])c1 (stereo unspecified)
inactive: dose: 50.0 mg/kg/injection, schedule: Q04DX003 (ip), vehicle: saline 104 % of control | [8] 97 % of control | [9] 106 % of control | [10] 96 % of control | [11] 104 % of control

COC(=O)C1c2ccccc2-c2ccccc21
inactive: [1] 97 % of control | [2] 107 % of control | [3] 96 % of control

CCN(CC)C(=O)CS(=O)(=O)c1ccc(C)cc1
inactive: [4] 96 % of control | [5] 110 % of control | [7] 98 % of control

CCOC(=O)C(C)C(=O)C(=O)N=C(N)N (stereo unspecified)
inactive: dose: 100.0 mg/kg/injection, schedule: Q01DX009 (ip), vehicle: saline 102 % of control | [9] 101 % of control and 103 % of control | dose: 200.0 mg/kg/injection, schedule: Q01DX009 (ip), vehicle: saline 100 % of control | [11] 97 % of control | dose: 400.0 mg/kg/injection, schedule: Q01DX009 (ip), vehicle: saline 100 % of control | dose: 400.0 mg/kg/injection, schedule: Q04DX003 (ip), vehicle: saline 103 % of control and 104 % of control

O=P(c1ccccc1)(c1ccccc1)c1ccccc1
inactive: dose: 50.0 mg/kg/injection, schedule: Q01DX001 (ip), vehicle: saline 102 % of control | [12] 98 % of control | [13] 98 % of control

Cc1ccc(S(=O)(=O)N2CCCC(=O)c3ccc(Cl)cc32)cc1
inactive: dose: 100.0 mg/kg/injection, schedule: Q01DX009 (ip), vehicle: Klucel (hydroxypropylcellulose) (HPC) 101 % of control | dose: 100.0 mg/kg/injection, schedule: Q04DX003 (ip), vehicle: Klucel (hydroxypropylcellulose) (HPC) 96 % of control | dose: 200.0 mg/kg/injection, schedule: Q01DX009 (ip), vehicle: Klucel (hydroxypropylcellulose) (HPC) 104 % of control | dose: 200.0 mg/kg/injection, schedule: Q04DX003 (ip), vehicle: Klucel (hydroxypropylcellulose) (HPC) 100 % of control | dose: 400.0 mg/kg/injection, schedule: Q01DX009 (ip), vehicle: Klucel (hydroxypropylcellulose) (HPC) 95 % of control | dose: 400.0 mg/kg/injection, schedule: Q04DX003 (ip), vehicle: Klucel (hydroxypropylcellulose) (HPC) 91 % of control

CC(=O)OC1CCC2C3CCC4=C(Cl)C(=O)CCC4C3CCC12C (stereo unspecified)
inactive: dose: 100.0 mg/kg/injection, schedule: Q01DX009 (sc), vehicle: steriod suspending solution 103 % of control | dose: 200.0 mg/kg/injection, schedule: Q01DX009 (sc), vehicle: steriod suspending solution 102 % of control | dose: 400.0 mg/kg/injection, schedule: Q01DX009 (sc), vehicle: steriod suspending solution 100 % of control

CC1CC(=O)N(Cl)C(=O)N1Cl (stereo unspecified)
inactive: [14] 102 % of control | [15] 106 % of control

CCOc1ccc(/C=N/NC(=O)c2cccc3ccccc23)cc1OCC
inactive: [12] 90 % of control | [16] 90 % of control

O=C(Nc1ccc2c3c(cccc13)CC2)c1cccc([N+](=O)[O-])c1
inactive: [8] 102 % of control | [10] 94 % of control | dose: 400.0 mg/kg/injection, schedule: Q01DX001 (ip), vehicle: saline with Tween-80 96 % of control

Clc1nc2ccccc2nc1C(Cl)Cl
inactive: dose: 100.0 mg/kg/injection, schedule: Q01DX001 (ip), vehicle: Klucel (hydroxypropylcellulose) (HPC) 101 % of control | dose: 200.0 mg/kg/injection, schedule: Q01DX001 (ip), vehicle: Klucel (hydroxypropylcellulose) (HPC) 110 % of control

COc1cc(/C=C2\SC(=O)NC2=O)ccc1O
inactive: dose: 12.5 mg/kg/injection, schedule: Q01DX009 (ip), vehicle: saline with Tween-80 106 % of control | dose: 25.0 mg/kg/injection, schedule: Q01DX009 (ip), vehicle: saline with Tween-80 101 % of control | dose: 150.0 mg/kg/injection, schedule: Q01DX009 (ip), vehicle: saline with Tween-80 101 % of control

OCCN(CCO)Cc1cc(Cl)c2cccnc2c1O
inactive: [14] 102 % of control | [15] 104 % of control

CC(=O)n1cc(C2CC(=O)OC3=C2CC(=O)C(C)(C)C3)c2ccccc21 (stereo unspecified)
inactive: [2] 100 % of control | [4] 95 % of control | [3] 96 % of control | [5] 101 % of control | [6] 91 % of control | [7] 101 % of control

CC1(C)CC1(Br)c1ccccc1 (stereo unspecified)
inactive: [12] 96 % of control | [13] 96 % of control | [16] 101 % of control

Cn1c(Cl)c(C=O)c2ccccc21
inactive: dose: 50.0 mg/kg/injection, schedule: Q04DX002 (ip), vehicle: Klucel (hydroxypropylcellulose) (HPC) 90 % of control | dose: 100.0 mg/kg/injection, schedule: Q04DX002 (ip), vehicle: Klucel (hydroxypropylcellulose) (HPC) 93 % of control | dose: 200.0 mg/kg/injection, schedule: Q04DX002 (ip), vehicle: Klucel (hydroxypropylcellulose) (HPC) 97 % of control
